Test results taken from patent publication US6689803B2, “Compositions and methods for treating surgical adhesions” (Angiotech Pharmaceuticals, Inc., priority 1996, dated 2004).

What was measured:
synoviocytes = experiment: Proliferation assay (MTT); type: cell-based; conditions: 24-hour exposure
Experimental: On day one, 5-10×10^4 synoviocytes were plated per well (96-well plate). Column #1 was kept free of cells (blank). On day 2, the plate was flicked to discard the medium and 200 μl of medium containing various concentrations of drug was added. […] There was no drug added to columns #1 and #2 (blank and untreated control, respectively). The medium containing the drug was discarded and 200 μl of fresh complete medium was added. The cells were then left to grow for an additional 3 to 4 days. On day five, 20 μl of dimethylthiazol diphenyltetrazolium bromide salt (MTT) (5 mg/ml PBS) was added and allowed to incubate for 4 hours at 37° C. The medium was decanted and 200 μl of DMSO was added.
The data were expressed as the % of survival which was obtained by dividing the number of cells remaining after treatment by the number of cells in the untreated control column #2 (the number of cells was obtained from a standard done prior to the assay).

[1] = Paclitaxel solubility in permeation enhancers; type: physicochemical; conditions: 37° C.
Experimental: The following permeation enhancers were examined: Transcutol®, ethanol, propylene glycol, isopropyl myristate, oleic acid and Transcutol:isopropyl myristate (9:1 v:v). […] A sample of 0.5 ml of the fluid from each vial was centrifuged at 37° C. and 13000 rpm for 2 minutes. Aliquots (0.1 ml) of supernatant from the centrifuge tubes were transferred to volumetric flasks and diluted with methanol. Paclitaxel content was assessed by high pressure liquid chromatography (HPLC).

subcutaneous tumors = experiment: Subcutaneous tumors in mice treated with paste; type: in vivo; conditions: paclitaxel/gelatin/PCL paste
stromelysin (MMP-3) mRNA = experiment: IL-1 induced stromelysin mRNA expression in chondrocytes (Northern blot); type: cell-based
Excerpt: The blots were subsequently stripped and reprobed with ^32P-radiolabeled rat GAPDH cDNA, which was used as a housekeeping gene. […] The MMP-1 and MMP-3 expression levels were normalized with GAPDH.

CC(=O)O[C@H]1C(=O)[C@@]2(C)[C@H]([C@H](OC(=O)c3ccccc3)[C@]3(O)C[C@H](OC(=O)[C@H](O)[C@@H](NC(=O)c4ccccc4)c4ccccc4)C(C)=C1C3(C)C)[C@]1(OC(C)=O)CO[C@@H]1C[C@@H]2O [paclitaxel]
IC50 (synoviocytes): ~30 nM | Paclitaxel concentration at saturation, Average ([1]; Ethanol): 68.91 mg/mL | Paclitaxel concentration at saturation, Average ([1]; Isopropyl myristate): 0.43 mg/mL | Paclitaxel concentration at saturation, Average ([1]; Oleic acid): 0.31 mg/mL | Paclitaxel concentration at saturation, Average ([1]; Propylene glycol): 21.56 mg/mL | Paclitaxel concentration at saturation, Average ([1]; Transcutol): 346.9 mg/mL | Paclitaxel concentration at saturation, Average ([1]; Transcutol, listed as Paclitaxel): 346.85 mg/mL | Paclitaxel concentration at saturation, Average ([1]; Transcutol:isopropyl myristate (9:1 v:v)): 353.9 mg/mL | Paclitaxel concentration at saturation, Average ([1]; Transcutol:isopropyl myristate (9:1 v:v), listed as Paclitaxel): 353.93 mg/mL | tumor mass (subcutaneous tumors): significantly reduced the tumor mass | concentration inhibiting stromelysin expression in vitro (stromelysin (MMP-3) mRNA): 10^−6 M | stromelysin mRNA levels (stromelysin (MMP-3) mRNA; 10^−5 M, pretreatment 24 hours, IL-1): complete inhibition
